In article PMC9090415, “Discovery of small molecule inhibitors of Plasmodium falciparum apicoplast DNA polymerase” (Journal of Enzyme Inhibition and Medicinal Chemistry, 2022):

Biological target: P. falciparum apicoplast DNA polymerase (Pf-apPOL) (Plasmodium falciparum, UniProt Q8ILY1)
Assay: Fluorescence-based high-throughput DNA polymerase assay (molecular beacon), primary screen and dose-response;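 for % inhibition ApPOL 90': test concentration in µM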;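 for % inhibition apPOL 180': test concentration in µM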
Type: biochemical
Details: for DNA Pol: unit not given, 90 min, 10 µM
Method in brief: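 Single-point screening used 10 µM compound with 20 nM polymerase, 20 nM hairpin substrate and 6 µM dNTPs for 90 min at 25 °C. Confirmatory titrations (2.5–80 µM) followed fluorescence at three times, and IC50 was derived from a fit including a cooperativity term n.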

[1] = DRC-2, 40', concentration 10 (unit not given)

Chain of P. falciparum apicoplast DNA polymerase (Pf-apPOL) (Q8ILY1 entry or part of it): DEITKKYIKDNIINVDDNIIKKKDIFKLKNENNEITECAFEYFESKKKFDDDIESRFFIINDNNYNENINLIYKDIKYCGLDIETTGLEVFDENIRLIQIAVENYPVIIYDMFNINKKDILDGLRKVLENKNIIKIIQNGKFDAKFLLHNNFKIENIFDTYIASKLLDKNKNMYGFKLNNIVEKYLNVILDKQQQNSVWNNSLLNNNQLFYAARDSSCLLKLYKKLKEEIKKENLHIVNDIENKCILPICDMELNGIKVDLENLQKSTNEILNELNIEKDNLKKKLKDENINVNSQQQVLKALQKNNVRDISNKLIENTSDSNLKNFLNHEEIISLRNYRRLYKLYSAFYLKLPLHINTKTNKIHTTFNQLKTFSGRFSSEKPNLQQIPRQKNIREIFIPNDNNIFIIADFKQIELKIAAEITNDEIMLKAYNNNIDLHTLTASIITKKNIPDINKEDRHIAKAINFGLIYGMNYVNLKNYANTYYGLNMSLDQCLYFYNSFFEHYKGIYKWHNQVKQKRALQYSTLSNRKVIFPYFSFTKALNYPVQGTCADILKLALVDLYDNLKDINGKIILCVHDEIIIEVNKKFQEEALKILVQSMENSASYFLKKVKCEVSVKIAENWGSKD

O=C(Cn1ccc2c(=O)[nH]ccc21)Nc1cccc(Cl)c1 [Molecule 23, O=C(Cn1ccc2c1cc[nH]c2=O)Nc1cccc(c1)Cl]
% inhibition Apo pol 10' (DRC-1, concentration 2.5): 1.228%
% inhibition Apo pol 10' (DRC-1, concentration 5): 14.8384%
% inhibition Apo pol 10' (DRC-1, concentration 10): 62.4441%
% inhibition Apo pol 10' (DRC-1, concentration 20): 81.0439%
% inhibition Apo pol 10' (DRC-1, concentration 40): 80.7703%
% inhibition Apo pol 10' (DRC-1, concentration 80): 68.5193%
% inhibition Apol 90' (DRC-1, 90', concentration 2.5): -3.118%
% inhibition Apol 90' (DRC-1, 90', concentration 5): 4.6922%
% inhibition Apol 90' (DRC-1, 90', concentration 10): 48.8063%
% inhibition Apol 90' (DRC-1, 90', concentration 20): 74.6886%
% inhibition Apol 90' (DRC-1, 90', concentration 40): 82.985%
% inhibition Apol 90' (DRC-1, 90', concentration 80): 79.3379%
% inhibition apPOL 180' (DRC-1, 180', concentration 2.5): -7.139%
% inhibition apPOL 180' (DRC-1, 180', concentration 5): -3.837%
% inhibition apPOL 180' (DRC-1, 180', concentration 10): 31.8886%
% inhibition apPOL 180' (DRC-1, 180', concentration 20): 62.9592%
% inhibition apPOL 180' (DRC-1, 180', concentration 40): 80.4785%
% inhibition apPOL 180' (DRC-1, 180', concentration 80): 82.7611%
% inhibition Apol 40' [1]: 63%
% inhibition Apol 40' (DRC-2, 40', concentration 20 (unit not given)): 65%
% inhibition ApPOL 90' (DRC-2, 90', concentration 10 (unit not given)): 63%
% inhibition ApPOL 90' (DRC-2, 90', concentration 80 (unit not given)): 57%
% inhibition apPOL 180' (DRC-2, 180', concentration 10 (unit not given)): 57%
% inhibition apPOL 180' (DRC-2, 180', concentration 80 (unit not given)): 65%
% inhibition Apo pol 5' (DRC-2, concentration 2.5): 7%
% inhibition Apo pol 5' (DRC-2, concentration 5): 28%
% inhibition Apo pol 5' (DRC-2, concentration 10): 46%
% inhibition Apo pol 5' (DRC-2, concentration 20): 43%
% inhibition Apo pol 5' (DRC-2, concentration 40): 34%
% inhibition Apo pol 5' (DRC-2, concentration 80): 19%
% inhibition Apol 40' (DRC-2, 40', concentration 2.5): 6%
% inhibition Apol 40' (DRC-2, 40', concentration 5): 35%
% inhibition Apol 40' (DRC-2, 40', concentration 10): 63%
% inhibition Apol 40' (DRC-2, 40', concentration 20): 65%
% inhibition Apol 40' (DRC-2, 40', concentration 40): 60%
% inhibition Apol 40' (DRC-2, 40', concentration 80): 49%
% inhibition ApPOL 90' (DRC-2, 90', concentration 2.5): 3%
% inhibition ApPOL 90' (DRC-2, 90', concentration 5): 31%
% inhibition ApPOL 90' (DRC-2, 90', concentration 10): 63%
% inhibition ApPOL 90' (DRC-2, 90', concentration 20): 69%
% inhibition ApPOL 90' (DRC-2, 90', concentration 40): 67%
% inhibition ApPOL 90' (DRC-2, 90', concentration 80): 57%
% inhibition apPOL 180' (DRC-2, 180', concentration 2.5): -5%
% inhibition apPOL 180' (DRC-2, 180', concentration 5): 18%
% inhibition apPOL 180' (DRC-2, 180', concentration 10): 57%
% inhibition apPOL 180' (DRC-2, 180', concentration 20): 71%
% inhibition apPOL 180' (DRC-2, 180', concentration 40): 72%
% inhibition apPOL 180' (DRC-2, 180', concentration 80): 65%
DNA Pol (primary screen value of the 186 hits): 79
DNA Pol (primary screen value, head "DNA Pol"): 79

COc1ccc2c(c1)C(c1ccccc1OC)CC(=O)O2 (stereo not drawn) [Molecule 38, COc1ccc2c(c1)C(CC(=O)O2)c1ccccc1OC]
DNA Pol ('DNA Pol' of the 186 hits list (primary screen result)): 27
% inhibition Apo pol 10' (DRC-1, concentration 2.5): 10.6274%
% inhibition Apo pol 10' (DRC-1, concentration 5): 16.1295%
% inhibition Apo pol 10' (DRC-1, concentration 10): 45.2437%
% inhibition Apo pol 10' (DRC-1, concentration 20): 76.7316%
% inhibition Apo pol 10' (DRC-1, concentration 40): 94.6893%
% inhibition Apo pol 10' (DRC-1, concentration 80): 97.2345%
% inhibition Apol 90' (DRC-1, 90', concentration 2.5): -7.663%
% inhibition Apol 90' (DRC-1, 90', concentration 5): -2.39%
% inhibition Apol 90' (DRC-1, 90', concentration 10): 21.9297%
% inhibition Apol 90' (DRC-1, 90', concentration 20): 56.4964%
% inhibition Apol 90' (DRC-1, 90', concentration 40): 89.2946%
% inhibition Apol 90' (DRC-1, 90', concentration 80): 96.5262%
% inhibition apPOL 180' (DRC-1, 180', concentration 2.5): -11.4597%
% inhibition apPOL 180' (DRC-1, 180', concentration 5): -6.316%
% inhibition apPOL 180' (DRC-1, 180', concentration 10): 13.8407%
% inhibition apPOL 180' (DRC-1, 180', concentration 20): 46.2939%
% inhibition apPOL 180' (DRC-1, 180', concentration 40): 87.0263%
% inhibition apPOL 180' (DRC-1, 180', concentration 80): 96.2979%
% inhibition Apol 40' [1]: 27%
% inhibition ApPOL 90' (DRC-2, 90', concentration 5 (unit not given)): 7%
% inhibition apPOL 180' (DRC-2, 180', concentration 5 (unit not given)): 7%
% inhibition Apo pol 5' (DRC-2, concentration 2.5): 6.5%
% inhibition Apo pol 5' (DRC-2, concentration 5): 27%
% inhibition Apo pol 5' (DRC-2, concentration 5 (unit not given)): 27%
% inhibition Apo pol 5' (DRC-2, concentration 10): 41%
% inhibition Apo pol 5' (DRC-2, concentration 20): 55%
% inhibition Apo pol 5' (DRC-2, concentration 40): 64%
% inhibition Apo pol 5' (DRC-2, concentration 80): 69%
% inhibition Apol 40' (DRC-2, 40', concentration 2.5): -7%
% inhibition Apol 40' (DRC-2, 40', concentration 5): 10%
% inhibition Apol 40' (DRC-2, 40', concentration 10): 27%
% inhibition Apol 40' (DRC-2, 40', concentration 20): 54%
% inhibition Apol 40' (DRC-2, 40', concentration 40): 72%
% inhibition Apol 40' (DRC-2, 40', concentration 80): 81%
% inhibition ApPOL 90' (DRC-2, 90', concentration 2.5): -8%
% inhibition ApPOL 90' (DRC-2, 90', concentration 5): 7%
% inhibition ApPOL 90' (DRC-2, 90', concentration 10): 23%
% inhibition ApPOL 90' (DRC-2, 90', concentration 20): 53%
% inhibition ApPOL 90' (DRC-2, 90', concentration 40): 74%
% inhibition ApPOL 90' (DRC-2, 90', concentration 80): 84%
% inhibition apPOL 180' (DRC-2, 180', concentration 2.5): -3.79%
% inhibition apPOL 180' (DRC-2, 180', concentration 5): 7%
% inhibition apPOL 180' (DRC-2, 180', concentration 10): 20%
% inhibition apPOL 180' (DRC-2, 180', concentration 20): 50%
% inhibition apPOL 180' (DRC-2, 180', concentration 40): 75%
% inhibition apPOL 180' (DRC-2, 180', concentration 80): 86%
DNA Pol (primary screen value of the library well): 27

Cn1nc(-c2nc(-c3ccccc3)no2)c2c1CCN(C(=O)Cc1cccs1)C2 [Molecule 58]
IC50 (supplemental file 2, sheet IC50 nontoxic compounds, Pf-apPOL): 18.5 µM
